The data set concerns the target T1, GluA2Qflip (Rattus norvegicus, UniProt P19491).
T1 construct: expressed in transfected cells; host or cells: HEK-293S
In words: Whole-cell current recording, GluA2Qflip in HEK-293 cells. Format: cell-based. The text has this:
The original cDNAs in pBlueScript encoding rat GluA1, 2 and 3 AMPA receptors and GluK2 kainate receptor were kindly provided by Steve Heinemann. The GluA4 DNA plasmid was kindly provided by Peter Seeburg. The GluK1 plasmid was kindly provided by Geoffrey Swanson. The cDNAs of all three NMDA receptor subunits were gifts from John Woodward. All DNA plasmids were propagated using Escherichia coli host (DH5α) and purified using QIAGEN DNA purification kits.
All of the receptors were transiently expressed in HEK-293S cell. HEK-293S cells were maintained in Dulbecco's modified Eagle's medium (DMEM) supplemented with 10% fetal bovine serum and 1% penicillin in a 37° C., 5% CO2, humidified incubator. Receptors were transiently transfected by using calcium phosphate or lipofectamine 2000 (Invitrogen). The DNA plasmids encoding green fluorescent protein (GFP) and T-antigen (TAg) were cotransfected in HEK-293 S cells. GFP was used as a transfection marker for cell recording, and TAg was cotransfected to potentiate the receptor expression at the single-cell level^6. Transfected cells were allowed to grow for 48 hour before they were used for recording.
The procedure for whole-cell current recording to assay the inhibitory property of an RNA aptamer is known to those of skill in the art and has been previously described^7. […] The extracellular buffer composition is described above (see “Receptor Preparation”). For recording of the NMDA channels, the intracellualr solution contained (in mM) 140 CsCl, 1 MgCl2, 0.1 EGTA, and 10 HEPES (pH 7.2 adjusted by […]), while the extracellular solution contained (in mM) 135 NaCl, 5.4 KCl, 1.8 CaCl2, 10 glucose and 5 HEPES (pH 7.2 adjusted by NaOH). In the extracellular buffer, 2 μM of glycine was added (glycine was the co-agonist of NMDA receptor)^2. All reagents including aptamer were dissolved in the corresponding extracellular buffer and used. […] The whole-cell current was recorded using an Axopatch-200B amplifier at a cutoff frequency of 2-20 kHz by a built-in, eight-pole Bessel filter and digitized at 5-50 kHz sampling frequency using a Digidata 1322A from Axon Instruments (Molecular Devices, Sunnyvale, Calif.). The pClamp 8 software (Molecular Devices) was used for data acquisition. All whole-cell recordings were at −60 mV and 22° C.
To deliver AG56 to a HEK-293 cell, a “Ψ”-shaped flow device was used. […] In all experiments reported in this study, a 6-second preincubation flow protocol was used for full aptamer preincubation. […] The corrected current amplitude was used for data analysis.
Determination of KI,app by the ratio of the current amplitude in the absence and presence of inhibitor or A/A(I)—see FIG. 5 in the text. Equ. 10a and 10b were derived based on one inhibitor binding to the receptor. KI, app is the apparent inhibition constant for the inhibitor; other terms have been defined previously.
Under this condition, the inhibition constant for the closed-channel conformation was determined from the ratio of the amplitude according to equ. 10a and 10b. Likewise, at a saturating ligand concentration (i.e., L>>K1), the majority of the receptors were in the open-channel state. Consequently, the inhibition constant associated with the open-channel conformation was measured. The basis of using the two ligand concentrations that corresponded to ˜4% and ˜96% fraction of the open-channel receptor form^7 to determine the corresponding inhibition constant was a putative difference in inhibition constant between the closed-channel and the open-channel conformation. At those low and high ligand concentrations^7, the apparent inhibition constants obtained were considered pertinent to the closed-channel and the open-channel conformations, respectively. Examples of using the current amplitude to determine the inhibition constant for an inhibitor include our previous study of two 2,3-benzodiazepine derivatives with the GluA2Qflip AMPA receptor^15.

T1 sequence (P19491 22-883 isoform P19491-2): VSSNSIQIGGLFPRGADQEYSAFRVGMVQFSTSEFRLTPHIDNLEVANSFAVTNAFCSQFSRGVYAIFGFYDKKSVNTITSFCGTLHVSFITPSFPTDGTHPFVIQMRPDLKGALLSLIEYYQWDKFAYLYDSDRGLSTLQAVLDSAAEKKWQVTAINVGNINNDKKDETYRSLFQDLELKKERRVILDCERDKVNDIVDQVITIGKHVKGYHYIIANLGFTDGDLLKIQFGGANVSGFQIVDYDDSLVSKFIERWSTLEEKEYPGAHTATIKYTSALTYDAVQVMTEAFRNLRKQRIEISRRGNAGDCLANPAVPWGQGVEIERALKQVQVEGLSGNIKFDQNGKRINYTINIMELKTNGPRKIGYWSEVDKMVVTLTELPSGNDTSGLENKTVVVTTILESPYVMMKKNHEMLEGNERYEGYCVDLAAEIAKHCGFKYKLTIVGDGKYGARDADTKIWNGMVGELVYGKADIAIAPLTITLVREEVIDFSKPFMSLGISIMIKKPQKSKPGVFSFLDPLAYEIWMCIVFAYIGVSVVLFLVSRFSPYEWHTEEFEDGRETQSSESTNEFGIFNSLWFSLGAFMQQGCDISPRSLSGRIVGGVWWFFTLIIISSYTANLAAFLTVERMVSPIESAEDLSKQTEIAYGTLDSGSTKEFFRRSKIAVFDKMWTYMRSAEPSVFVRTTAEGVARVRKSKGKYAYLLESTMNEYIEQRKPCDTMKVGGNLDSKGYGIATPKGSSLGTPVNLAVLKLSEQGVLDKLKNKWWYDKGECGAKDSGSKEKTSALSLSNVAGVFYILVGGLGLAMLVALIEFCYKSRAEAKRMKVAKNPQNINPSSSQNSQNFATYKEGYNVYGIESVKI

Turning to “AG56: 56-nucleotide truncated version of AG1407, RNA aptamer (GGGAGAUUGUGAAGCGUAGGCUCGAGUUUGUCCCGCGAGCCAAAGAUUCCAGACCC; RNA, backbone not given here)”, where the note is “GluA2Qflip”, the “inhibitory function of shorter versions of AG1407, based on A/A(I)” value is given as “functional sequence”. The “inhibition of the open-channel conformation” value (GluA2Qflip, high glutamate concentration) was “selectively inhibited the open-channel”. The “inhibition of the closed-channel conformation” value (GluA2Qflip, low glutamate concentration) is recorded as “did not inhibit”. In addition, the Ki (open-channel conformation of GluA2Qflip, 3 mM glutamate, read-out: inhibition constant) was 950 ± 200 nM.

The values are drawn from patent US8748407B2 (The Research Foundation for the State University of New York, priority 2010, dated 2014).
